Test results as given in patent US20240108760A1 (priority 2021, published 2024).
Entries after “also recorded” stand apart in the source; their conditions may differ. Like-named read-outs stand apart in the source and are kept apart here.

B1: CODA71: chimeric LGIC: human α7-nAChR ligand binding domain with GlyRα1 Cys-loop, fused to human GlyRα1 ion pore domain; SEQ ID NO: 33 (protein)
chain: MRCSPGGVWLALAASLLHVSLQGEFQRKLYKELVKNYNPLERPVANDSQPLTVYFSLSLLQIMDVDEKNQVLTTNIWLQMSWTDHYLQWNVSEYPGVKTVRFPDGQIWKPDILLYNSADERFDATFHTNVLVNSSGHCQYLPPGIFKSSCPMDLKNFPMDVQTCKLKFGSWSYGGWSLDLQMQEADISGYIPNGEWDLVGIPGKRSERFYECCKEPYPDVTFTVTMRRRMGYYLIQMYIPSLLIVILSWISFWINMDAAPARVGLGITTVLTMTTQSSGSRASLPKVSYVKAIDIWMAVCLLFVFSALLEYAAVNFVSRQHKELLRFRRKRRHHKSPMLNLFQEDEAGEGRFNFSAYGMGPACLQAKDGISVKGANNSNTTNPPPAPSKSPEEMRKLFIQRAKKIDKISRIGFPMAFLIFNMFYWIIYKIVRREDVHNQ

How the values were obtained:
[1] = target: T1, CODA71 chimeric receptors (Homo sapiens, UniProt P36544, F159M/H163T/I152M/R155K/V154L/W156N/Y151P); assay: Evoked hippocampal seizure threshold, perforant pathway electrical stimulation; format: in vivo, C57BL/6 mice; settings: for increase of minimal threshold potential to evoke electrographic seizures: i.p. TC-5619 (100 mg/kg)
Procedure: (§1) Changes to evoked hippocampal seizure thresholds were measured in response to perforant pathway electrical stimulation. For spontaneous seizure experiments, mice were unilaterally injected intrahippocampally with kainic acid (KA) to induce epilepsy, 3 weeks prior to AAV9 injection and EEG electrode implantation.
In one set of animal studies, two weeks prior to seizure threshold testing, CODA71 were bilaterally-expressed in CA1/DG, along with bipolar electrode placement in CAT and the perforant pathway. 45 minutes prior to threshold testing, mice received 100 mg/kg TC-5619 or saline via i.p. injection. Electrical stimulation (1 sec at 60 Hz, 1 ms pulses) of increasing amplitude was delivered every 100 seconds, until electrographic seizures were evoked (FIG. 29).
Here evoked seizure thresholds were determined by monitoring responses to increasing amplitude electrical stimulation and as the minimal stimulation amplitude required to evoke sustained epileptic form activity in each trial.

[2] = target: T1, CODA71 chimeric receptors; assay: Spontaneous seizures in the intrahippocampal kainic acid focal epilepsy model (chronic EEG); format: in vivo, C57BL/6 mice; settings: for focal seizures (overall conclusion): CODA71 delivered by AAV9 to hippocampus, activated by TC-5619
Procedure: as §1
In one set of animal studies, seven weeks prior to testing of neuron activities, kainic acid was unilaterally injected into CAT to evoke spontaneous seizures. Five weeks later, CODA71 receptor were bilaterally expressed in CA1/DG, along with bipolar electrode placement in CAT for recording EEG (FIG. 32). Spontaneous seizures were tracked with chronic EEG recordings. On alternating days, mice received two i.p. injections of either 100 mg/kg TC-5619 or saline, 2 hrs apart.

[3] = target: T1, CODA71 chimeric receptors; assay: Whole cell current clamp recording of CA1 neurons in acute slices, TC-5619 bath application; format: cell-based, C57BL/6 mice
[4] = tested on: hippocampal neurons; assay: Hippocampal expression of CODA71 receptor after AAV9 delivery; format: in vivo, C57BL/6 mice; settings: hSyn promoter
[5] = CODA71 vector injected mice, 100 mg/kg TC-5619 i.p. 45 minutes prior
[6] = scrambled control vector injected mice, TC-5619

Row | Molecule | increase of minimal threshold potential to evoke electrographic seizures ([1]; CODA71 animals, p=0.0166 vs scrambled controls) [%] | electrically-evoked seizure threshold [1, 5] | electrically-evoked seizure threshold [1, 6] | increase of minimal threshold potential to evoke electrographic seizures ([1]; scrambled controls) [%] | focal seizures (overall conclusion) [2] | electrographic seizure duration ([2]; CODA71 vector mice, KA epileptic, i.p. TC-5619 100 mg/kg, p=0.0011, 100 mg/kg) | electrographic / spontaneous seizure frequency ([2]; CODA71 vector mice, KA epileptic, i.p. TC-5619 100 mg/kg, p=0.0325, 100 mg/kg) | spontaneous seizure frequency and duration [2, 6] | neuronal / CA1 action potential firing, excitability [3] | rheobase [3] [pA] | neuron property change in presence of bungarotoxin (BTX) ([3]; CODA71 vector vs scrambled control vector, α7-nAChR ligand binding domain inhibited by BTX) | intrinsic properties of whole cell recorded neurons (RMP, input resistance, rheobase, AP count) ([3]; after 1 minute application of 150 nM TC-5619) | expression of CODA71 receptor in hippocampal / CA1 neurons [4] | neuronal / CA1 action potential firing, excitability ([3]; acute slices, CODA71 transduced, 1-minute bath application of 150 nM TC-5619)
1 | O=C(N[C@@H]1C2CCN(CC2)[C@H]1Cc1cccnc1)c1cc2ccccc2o1 [TC-5619] | 139±48.0 | increased more | did not change seizure thresholds | −10±13.2 | ameliorate spontaneous focal seizures | significantly reduced; also recorded: substantial decrease in seizure duration | significantly reduced; also recorded: dropped dramatically; also recorded: prolonged decrease in seizure frequency | little change; also recorded: No such effect was observed | suppressed CA1 action potential firing | 368±39.7 | little property change | rapidly changed |  | 
2 | B1 |  | increased |  |  | effectively suppress focal seizure; also recorded: ameliorate spontaneous focal seizures; also recorded: prevented both evoked and spontaneous focal seizures |  |  |  |  |  |  |  | expressed well; also recorded: effective expression | effectively suppress neuronal firing; also recorded: successfully suppressed hippocampal neuronal excitability
